According to PubChem BioAssay AID1259407 (Chemical Carcinogenesis Research Information System (CCRIS), 2018):
Calls of active or inactive are those of the source. No rule for the calls is given here.

Test system: CCRIS mutagenicity, Ames/micronucleus/aberration tests
Assay: CCRIS mutagenicity studies
[1] = Test System: AMES SALMONELLA TYPHIMURIUM, Strain/Indicator: TA98, Metabolic Activation: NONE, Method: STANDARD PLATE
[2] = Test System: AMES SALMONELLA TYPHIMURIUM, Strain/Indicator: TA1535, Metabolic Activation: NONE, Method: STANDARD PLATE
[3] = Test System: AMES SALMONELLA TYPHIMURIUM, Strain/Indicator: TA1537, Metabolic Activation: NONE, Method: STANDARD PLATE
[4] = Test System: AMES SALMONELLA TYPHIMURIUM, Strain/Indicator: TA102, Metabolic Activation: NONE, Method: STANDARD PLATE

Measured: mutagenic call

[O]=[Zr]
inactive: Test System: AMES SALMONELLA TYPHIMURIUM, Strain/Indicator: TA98, Metabolic Activation: HAMSTER, LIVER, S-9, AROCLOR 1254 (10%), Method: PREINCUBATION inactive; negative | Test System: AMES SALMONELLA TYPHIMURIUM, Strain/Indicator: TA98, Metabolic Activation: HAMSTER, LIVER, S-9, AROCLOR 1254, Method: STANDARD PLATE inactive; negative | Test System: AMES SALMONELLA TYPHIMURIUM, Strain/Indicator: TA98, Metabolic Activation: NONE, Method: PREINCUBATION inactive; negative | [1] inactive; negative | Test System: AMES SALMONELLA TYPHIMURIUM, Strain/Indicator: TA98, Metabolic Activation: RAT, LIVER, S-9, AROCLOR 1254 (10%), Method: PREINCUBATION inactive; negative | Test System: AMES SALMONELLA TYPHIMURIUM, Strain/Indicator: TA98, Metabolic Activation: RAT, LIVER, S-9, AROCLOR 1254, Method: STANDARD PLATE inactive; negative | Test System: AMES SALMONELLA TYPHIMURIUM, Strain/Indicator: TA100, Metabolic Activation: HAMSTER, LIVER, S-9, AROCLOR 1254 (10%), Method: PREINCUBATION inactive; negative | Test System: AMES SALMONELLA TYPHIMURIUM, Strain/Indicator: TA100, Metabolic Activation: HAMSTER, LIVER, S-9, AROCLOR 1254, Method: STANDARD PLATE inactive; negative | Test System: AMES SALMONELLA TYPHIMURIUM, Strain/Indicator: TA100, Metabolic Activation: NONE, Method: PREINCUBATION inactive; negative | Test System: AMES SALMONELLA TYPHIMURIUM, Strain/Indicator: TA100, Metabolic Activation: NONE, Method: STANDARD PLATE inactive; negative | Test System: AMES SALMONELLA TYPHIMURIUM, Strain/Indicator: TA100, Metabolic Activation: RAT, LIVER, S-9, AROCLOR 1254 (10%), Method: PREINCUBATION inactive; negative | Test System: AMES SALMONELLA TYPHIMURIUM, Strain/Indicator: TA100, Metabolic Activation: RAT, LIVER, S-9, AROCLOR 1254, Method: STANDARD PLATE inactive; negative | Test System: AMES SALMONELLA TYPHIMURIUM, Strain/Indicator: TA1535, Metabolic Activation: HAMSTER, LIVER, S-9, AROCLOR 1254 (10%), Method: PREINCUBATION inactive; negative | Test System: AMES SALMONELLA TYPHIMURIUM, Strain/Indicator: TA1535, Metabolic Activation: HAMSTER, LIVER, S-9, AROCLOR 1254, Method: STANDARD PLATE inactive; negative | Test System: AMES SALMONELLA TYPHIMURIUM, Strain/Indicator: TA1535, Metabolic Activation: NONE, Method: PREINCUBATION inactive; negative | [2] inactive; negative | Test System: AMES SALMONELLA TYPHIMURIUM, Strain/Indicator: TA1535, Metabolic Activation: RAT, LIVER, S-9, AROCLOR 1254 (10%), Method: PREINCUBATION inactive; negative | Test System: AMES SALMONELLA TYPHIMURIUM, Strain/Indicator: TA1535, Metabolic Activation: RAT, LIVER, S-9, AROCLOR 1254, Method: STANDARD PLATE inactive; negative | Test System: AMES SALMONELLA TYPHIMURIUM, Strain/Indicator: TA1537, Metabolic Activation: HAMSTER, LIVER, S-9, AROCLOR 1254 (10%), Method: PREINCUBATION inactive; negative | Test System: AMES SALMONELLA TYPHIMURIUM, Strain/Indicator: TA1537, Metabolic Activation: HAMSTER, LIVER, S-9, AROCLOR 1254, Method: STANDARD PLATE inactive; negative | Test System: AMES SALMONELLA TYPHIMURIUM, Strain/Indicator: TA1537, Metabolic Activation: NONE, Method: PREINCUBATION inactive; negative | [3] inactive; negative | Test System: AMES SALMONELLA TYPHIMURIUM, Strain/Indicator: TA1537, Metabolic Activation: RAT, LIVER, S-9, AROCLOR 1254 (10%), Method: PREINCUBATION inactive; negative | Test System: AMES SALMONELLA TYPHIMURIUM, Strain/Indicator: TA1537, Metabolic Activation: RAT, LIVER, S-9, AROCLOR 1254, Method: STANDARD PLATE inactive; negative | Test System: AMES SALMONELLA TYPHIMURIUM, Strain/Indicator: TA1538, Metabolic Activation: HAMSTER, LIVER, S-9, AROCLOR 1254, Method: STANDARD PLATE inactive; negative | Test System: AMES SALMONELLA TYPHIMURIUM, Strain/Indicator: TA1538, Metabolic Activation: NONE, Method: STANDARD PLATE inactive; negative | Test System: AMES SALMONELLA TYPHIMURIUM, Strain/Indicator: TA1538, Metabolic Activation: RAT, LIVER, S-9, AROCLOR 1254, Method: STANDARD PLATE inactive; negative | Test System: MOUSE LYMPHOMA, Strain/Indicator: L5178Y (TK+/TK-), Metabolic Activation: NONE, Method: SUSPENSION/PLATE inactive; negative. reevaluation of results: negative | Test System: MOUSE LYMPHOMA, Strain/Indicator: L5178Y (TK+/TK-), Metabolic Activation: RAT, LIVER, S-9, AROCLOR 1254, Method: SUSPENSION/PLATE inactive; negative. reevaluation of results: negative

C[N+](C)(C)NCCC(=O)[O-]
inactive: Test System: AMES SALMONELLA TYPHIMURIUM, Strain/Indicator: TA98, Metabolic Activation: NONE inactive; negative | Test System: AMES SALMONELLA TYPHIMURIUM, Strain/Indicator: TA98, Metabolic Activation: RAT LIVER S-9, AROCLOR 1254 inactive; negative | Test System: AMES SALMONELLA TYPHIMURIUM, Strain/Indicator: TA100, Metabolic Activation: NONE inactive; negative | Test System: AMES SALMONELLA TYPHIMURIUM, Strain/Indicator: TA100, Metabolic Activation: RAT LIVER S-9, AROCLOR 1254 inactive; negative

CC(=O)CC(=O)Nc1ccccc1C
inactive: [4] inactive; negative | Test System: AMES SALMONELLA TYPHIMURIUM, Strain/Indicator: TA2638, Metabolic Activation: NONE, Method: STANDARD PLATE inactive; negative | Test System: Ames Salmonella typhimurium, Strain/Indicator: TA98, Metabolic Activation: None, Method: Preincubation inactive; negative | Test System: Ames Salmonella typhimurium, Strain/Indicator: TA98, Metabolic Activation: Rat, Liver, S9, Sodium phenobarbital and 5,6-benzoflavone (10%), Method: Preincubation inactive; negative | Test System: Ames Salmonella typhimurium, Strain/Indicator: TA100, Metabolic Activation: None, Method: Preincubation inactive; negative | Test System: Ames Salmonella typhimurium, Strain/Indicator: TA100, Metabolic Activation: Rat, Liver, S9, Sodium phenobarbital and 5,6-benzoflavone (10%), Method: Preincubation inactive; negative | Test System: Ames Salmonella typhimurium, Strain/Indicator: TA1535, Metabolic Activation: None, Method: Preincubation inactive; negative | Test System: Ames Salmonella typhimurium, Strain/Indicator: TA1535, Metabolic Activation: Rat, Liver, S9, Sodium phenobarbital and 5,6-benzoflavone (10%), Method: Preincubation inactive; negative | Test System: Ames Salmonella typhimurium, Strain/Indicator: TA1537, Metabolic Activation: None, Method: Preincubation inactive; negative | Test System: Ames Salmonella typhimurium, Strain/Indicator: TA1537, Metabolic Activation: Rat, Liver, S9, Sodium phenobarbital and 5,6-benzoflavone (10%), Method: Preincubation inactive; negative | Test System: E. COLI, Strain/Indicator: WP2 (PKM101), Metabolic Activation: NONE, Method: STANDARD PLATE inactive; negative | Test System: E. COLI, Strain/Indicator: WP2 UVRA (PKM101), Metabolic Activation: NONE, Method: STANDARD PLATE inactive; negative | Test System: E. coli, Strain/Indicator: WP2uvrA/pKM101, Metabolic Activation: None, Method: Preincubation inactive; negative | Test System: E. coli, Strain/Indicator: WP2uvrA/pKM101, Metabolic Activation: Rat, Liver, S9, Sodium phenobarbital and 5,6-benzoflavone (10%), Method: Preincubation inactive; negative

CCOP(=S)(OCC)Oc1cnc2ccccc2n1
inactive: [1] inactive; negative | Test System: AMES SALMONELLA TYPHIMURIUM, Strain/Indicator: TA98, Metabolic Activation: S-9, NADPH GENERATING SYSTEM, Method: STANDARD PLATE inactive; negative | [4] inactive; negative | Test System: AMES SALMONELLA TYPHIMURIUM, Strain/Indicator: TA102, Metabolic Activation: S-9, NADPH GENERATING SYSTEM, Method: STANDARD PLATE inactive; negative | [2] inactive; negative | Test System: AMES SALMONELLA TYPHIMURIUM, Strain/Indicator: TA1535, Metabolic Activation: S-9, NADPH GENERATING SYSTEM, Method: STANDARD PLATE inactive; negative | [3] inactive; negative | Test System: AMES SALMONELLA TYPHIMURIUM, Strain/Indicator: TA1537, Metabolic Activation: S-9, NADPH GENERATING SYSTEM, Method: STANDARD PLATE inactive; negative
